Experimental data taken from the supplement of paper PMC4862054.

Tests used:
BT-474 [1] = assay: drug sensitivity score (DSS), CellTox Green (DSS (AUC-based score)); higher = stronger drug effect (viability inhibition or cytotoxicity); extreme values may be limits of the assay; conditions: incubation time: 72 h
In short: (§1)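 For 72 h, breast cancer cell lines seeded at 20 µl suspension per well in 384-well plates were incubated with compound at 5 concentrations in 10-fold steps spanning a 10,000-fold range that differed by compound. The first reading was CellTox Green fluorescence at 485/520 nm, and the second was CellTiter-Glo luminescence after 10 min at room temperature. Both were normalised per plate to 0.1 % DMSO and a positive kill control, and the drug sensitivity score was obtained from the area under the fitted dose-response curve.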

CAL-148 [2] = assay: as above; conditions: incubation time: 72 h
In short: as §1

CAL-51 [3] = assay: as above; conditions: incubation time: 72 h
In short: as §1

DU-4475 [4] = assay: as above; conditions: incubation time: 72 h
In short: as §1

HCC1599 [5] = assay: as above; conditions: incubation time: 72 h
In short: as §1

HCC1937 [6] = assay: as above; conditions: incubation time: 72 h
In short: as §1

HDQ-P1 = assay: as above; conditions: incubation time: 72 h
In short: as §1

Hs578T [7] = assay: as above; conditions: incubation time: 72 h
In short: as §1

MCF-10A = assay: as above; conditions: incubation time: 72 h
In short: as §1

MDA-MB-231 [8] = assay: as above; conditions: incubation time: 72 h
In short: as §1

MDA-MB-453 [9] = assay: as above; conditions: incubation time: 72 h
In short: as §1

MDA-MB-468 [10] = assay: as above; conditions: incubation time: 72 h
In short: as §1

HCC1143 [11] = assay: as above; conditions: incubation time: 72 h
In short: as §1

BT-474 [12] = assay: normalised viability (% of control), CellTiter-Blue; higher = more viable cells (about 100 = DMSO control); conditions: 100 nM; incubation time: 72 h
Method: (§2)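 DSRT, CellTiter-Blue viability, 72 h incubation. Signal is normalised to DMSO and benzethonium chloride controls. Value is the normalised response at dose 3.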

BT-549 = assay: as above; conditions: 100 nM; incubation time: 72 h
Method: as §2

CAL-120 = assay: as above; conditions: 100 nM; incubation time: 72 h
Method: as §2

CAL-148 [13] = assay: as above; conditions: 10 nM; incubation time: 72 h
Method: as §2

CAL-51 [14] = assay: as above; conditions: 10 nM; incubation time: 72 h
Method: as §2

CAL-85-1 = assay: as above; conditions: 10 nM; incubation time: 72 h
Method: as §2

DU-4475 [15] = assay: as above; conditions: 10 nM; incubation time: 72 h
Method: as §2

HCC1143 [16] = assay: as above; conditions: 100 nM; incubation time: 72 h
Method: as §2

HCC1599 [17] = assay: as above; conditions: 100 nM; incubation time: 72 h
Method: as §2

HCC1937 [18] = assay: as above; conditions: 100 nM; incubation time: 72 h
Method: as §2

Hs578T [19] = assay: as above; conditions: 100 nM; incubation time: 72 h
Method: as §2

MDA-MB-231 [20] = assay: as above; conditions: 100 nM; incubation time: 72 h
Method: as §2

MDA-MB-436 = assay: as above; conditions: 100 nM; incubation time: 72 h
Method: as §2

MDA-MB-453 [21] = assay: as above; conditions: 10 nM; incubation time: 72 h
Method: as §2

MDA-MB-468 [22] = assay: as above; conditions: 100 nM; incubation time: 72 h
Method: as §2

MFM-223 = assay: as above; conditions: 100 nM; incubation time: 72 h
Method: as §2

| Structure (SMILES) | drug sensitivity score (BT-474 [1]) | drug sensitivity score (CAL-148 [2]) | drug sensitivity score (CAL-51 [3]) | drug sensitivity score (DU-4475 [4]) | drug sensitivity score (HCC1599 [5]) | drug sensitivity score (HCC1937 [6]) | drug sensitivity score (HDQ-P1) | drug sensitivity score (Hs578T [7]) | drug sensitivity score (MCF-10A) | drug sensitivity score (MDA-MB-231 [8]) | drug sensitivity score (MDA-MB-453 [9]) | drug sensitivity score (MDA-MB-468 [10]) | drug sensitivity score (HCC1143 [11]) | normalised viability (BT-474 [12]) [%] | normalised viability (BT-549) [%] | normalised viability (CAL-120) [%] | normalised viability (CAL-148 [13]) [%] | normalised viability (CAL-51 [14]) [%] | normalised viability (CAL-85-1) [%] | normalised viability (DU-4475 [15]) [%] | normalised viability (HCC1143 [16]) [%] | normalised viability (HCC1599 [17]) [%] | normalised viability (HCC1937 [18]) [%] | normalised viability (Hs578T [19]) [%] | normalised viability (MDA-MB-231 [20]) [%] | normalised viability (MDA-MB-436) [%] | normalised viability (MDA-MB-453 [21]) [%] | normalised viability (MDA-MB-468 [22]) [%] | normalised viability (MFM-223) [%] |
| --- | --- | --- | --- | --- | --- | --- | --- | --- | --- | --- | --- | --- | --- | --- | --- | --- | --- | --- | --- | --- | --- | --- | --- | --- | --- | --- | --- | --- | --- |
| CN(C)C(=N)NC(=N)N [Metformin] | 0 | 0 | 8.43 | 0 | 1.75 | 0 | 0 | 4.84 | 0 | 0 | 0 | 14.1 | – | – | – | – | – | – | – | – | – | – | – | – | – | – | – | – | – |
| CC[C@H](CO)Nc1nc(NCc2ccccc2)c2ncn(C(C)C)c2n1 [Seliciclib] | 0 | 0 | 0 | 0 | 0 | 0 | 0 | 1.26 | 0 | 0 | 0 | 0 | 0 | – | – | – | – | – | – | – | – | – | – | – | – | – | – | – | – |
| CC(C)(C)c1nc(-c2cccc(NS(=O)(=O)c3c(F)cccc3F)c2F)c(-c2ccnc(N)n2)s1 [Dabrafenib] | 0 | 1.13 | 0 | 3.29 | 0 | 1.11 | 1.28 | 18.1 | 0 | 0 | 0 | 0 | 0 | – | – | – | – | – | – | – | – | – | – | – | – | – | – | – | – |
| CO[C@@H]1[C@H](N(C)C(=O)c2ccccc2)C[C@H]2O[C@]1(C)n1c3ccccc3c3c4c(c5c6ccccc6n2c5c31)C(=O)NC4 [Midostaurin] | 0.973 | – | 29.9 | 0 | 0 | 0 | 1.96 | 11.5 | 0 | 7.87 | 0 | 17 | 0 | 114 | 88.1 | 107 | 107 | 91.9 | 103 | 103 | 134 | 101 | 82.8 | 82.2 | 103 | 85.6 | 85.7 | 112 | 108 |
| CC(O)(CS(=O)(=O)c1ccc(F)cc1)C(=O)Nc1ccc(C#N)c(C(F)(F)F)c1 (configuration not stated) [Bicalutamide] | 0 | 0 | 0 | 0 | 0 | 0 | 0 | 0 | 0 | 0 | 0 | – | 0 | 115 | 84.5 | 97.2 | 109 | 105 | 110 | 103 | 99.8 | 83.7 | 83 | 93.6 | 105 | 98.7 | 101 | 94.6 | 87 |
| Cc1nc(C(=O)NCC(=O)O)c(O)c2ccc(Oc3ccccc3)cc12 [FG-4592] | 0 | 0 | 0 | 0 | 0 | 0 | 0 | 0 | 0 | 0 | 0 | 0 | 0 | – | – | – | – | – | – | – | – | – | – | – | – | – | – | – | – |
| CC(C)n1cnc2c(NCCc3ccc(O)cc3)nc(-c3csc4ccccc34)nc21 [StemRegenin 1] | 1.03 | 0 | 0 | 0 | 0 | 0 | 0 | – | 0 | 0 | 0 | 0 | 0 | – | – | – | – | – | – | – | – | – | – | – | – | – | – | – | – |
| Cn1cc(C2=C(c3cn(C4CCN(Cc5ccccn5)CC4)c4ccccc34)C(=O)NC2=O)c2ccccc21 [Enzastaurin] | 0 | 0 | 0 | 0 | 0 | 0 | 0 | – | 0 | 0 | 0 | 0 | 0 | 108 | 104 | 91.6 | 95.3 | 108 | 96.9 | 123 | 98 | 114 | 86.2 | 68.7 | 93.5 | 84.9 | 97.5 | 105 | 92.7 |
